Data: patent US6949513B2, “Polypeptides of covalently linked synthetic bioactive peptide analog(s) for treatment of cancer” (Dabur Research Foundation, priority 2001, dated 2005)
Positions of bridges follow the written chain, without caps; N, C: chain ends. Non-standard residues stand in square brackets, D forms with d. Residues, ends and D or L forms follow the SMILES beside them. Pen = CC(C)(S)[C@H](N)C(=O)O; Orn = NCCC[C@H](N)C(=O)O; Ac5c = NC1(C(=O)O)CCCC1; Aib = CC(C)(N)C(=O)O

Assays:
[1] = test system: PTC (colon) tumor xenografts; assay: antitumor activity on PTC (colon) tumor xenografts grown in nude mice; type: in vivo, Balb/c athymic mice; settings: 50 μg twice a day (total 100 μg), 14 days, compared to untreated mice
Method: PTC (colon) tumor xenografts were initiated in Balb/c athymic mice by subcutaneous inoculation of a single cell suspension of PTC cells(15×10^6 cells/[…]). When the average tumor volume reached around 2000 mm^3 the tumor-bearing mice were divided into three groups of 3 animals each. Two groups were randomly assigned for SEQ ID NO: 5 and SEQ ID NO: 7 treatment while the third group served as control. SEQ ID NO: 5 and SEQ ID NO:7 were prepared at a concentration of 250 μg/ml so as to deliver a dose of 50 μg per 200 μl. The injections were given twice a day at 12 hour intervals so as to deliver a total dose of 100 μg. The treatment was continued daily for a period of 14 days. The anti-tumor activity of SEQ ID NO: 5 and SEQ ID NO: 7 was monitored by measuring tumor volumes every fourth day and calculating volumes using the formula 0.4×W^2×L (W=smaller dia, L=larger dia,).

[2] = test system: PTC (Colon); assay: three day MTT cytotoxicity assay, PTC; type: cell-based, human; settings: 72 hours
Method: (§1) SEQ ID NO: 5 and SEQ ID NO: 7 were tested for cytotoxicity against 6 human tumor cell lines. Briefly, a three day MTT cytotoxicity assay was performed, which is based on the principle of uptake of MTT (3-(4,5-dimethylthiazol-2-yl)-2,5-diphenyl tetrazolium bromide), a tetrazolium salt, by the metabolically active cells where it is metabolized by active mitochondria into a blue colored formazan product that is read spectrophoto-metrically. MTT was dissolved in phosphate buffered saline with a pH of 7.4 to obtain an MTT concentration of 5 mg/ml; the resulting mixture was filtered through a 0.22 micron filter to sterilize and remove a small amount of insoluble residue. For each type of tumor cell, 20,000 to 50,000 cells were seeded in a 96-well culture plate and incubated with the drug in a CO2 incubator for 72 hours. The final concentration range of SEQ ID NO: 5 and SEQ ID NO: 7 was 1 nM to 10 μM. The drug was added at time 0, 24 and 48 hours. Control cells not treated with the drug were similarly incubated. The assay was terminated after 72 hours by adding 100 ug (20 ul) of MTT to each well, then incubating for additional one hour, and finally adding 50 ul of 10% SDS-0.01N HCl to each well to lyse the cells and dissolve formazan. After incubating for one hour, the plate was read spectrophotometrically at 540 nm and the cytotoxicity percentage calculated. The following Tables 1 and 2 show the dose response of SEQ ID NO: 5 and SEQ ID NO: 7 respectively along with their respective ED50 values on different tumor cell lines.

[3] = test system: trypsin; assay: trypsin digestion of the polypeptide; type: in vitro ADME; settings: trypsin 1:25 w/w, 37° C., pH 8.0-8.5
Method: On controlled digestion of the polypeptide peptide (SEQ ID NO:5), with enzyme trypsin, for ˜15 minutes, 3 major peaks were identifiable on analytical HPLC.
Briefly, the peptide was weighed, dissolved in NH4HCO3 buffer (pH 8.0) and mixed with freshly made enzyme trypsin (1 mg/ml in water) in a ratio of 1:25 (w/w) of enzyme: substrate, according to published protocol (Ref.: Methods in Mol. Bio., Vol. 32, Basic protein and peptide protocols, Enzymatic methods for cleaving proteins). The digestion mixture was incubated at 37° C. Aliquots were taken at different time points and analyzed on analytical HPLC (Shimadzu, Japan). The 15′ enzyme digest sample was picked up for analysis by MALDI-MS.

[4] = test system: KB (Oral); assay: three day MTT cytotoxicity assay, KB; type: cell-based, human; settings: 72 hours
Method: as §1

[5] = test system: L132 (Lung); assay: three day MTT cytotoxicity assay, L132; type: cell-based, human; settings: 72 hours
Method: as §1

[6] = test system: MiaPaCa.2 (Pancreas); assay: three day MTT cytotoxicity assay, MiaPaCa.2; type: cell-based, human; settings: 72 hours
Method: as §1

[7] = test system: MCF-7 (Breast); assay: three day MTT cytotoxicity assay, MCF-7; type: cell-based, human; settings: 72 hours
Method: as §1

[8] = test system: MOLT-4 (Leukemia); assay: three day MTT cytotoxicity assay, MOLT-4; type: cell-based, human; settings: 72 hours
Method: as §1

| SMILES | Tumor regression [1] | Percent cytotoxicity ([2]; 1 nM) | Percent cytotoxicity ([2]; 10 nM) | Percent cytotoxicity ([2]; 100 nM) | Percent cytotoxicity ([2]; 1 μM) | Percent cytotoxicity ([2]; 10 μM) | Percent cytotoxicity ([4]; 1 nM) | Percent cytotoxicity ([4]; 10 nM) | Percent cytotoxicity ([4]; 100 nM) | Percent cytotoxicity ([4]; 1 μM) | Percent cytotoxicity ([4]; 10 μM) | Percent cytotoxicity ([5]; 1 nM) | Percent cytotoxicity ([5]; 10 nM) | Percent cytotoxicity ([5]; 100 nM) | Percent cytotoxicity ([5]; 1 μM) | Percent cytotoxicity ([5]; 10 μM) | Percent cytotoxicity ([6]; 1 nM) | Percent cytotoxicity ([6]; 10 nM) | Percent cytotoxicity ([6]; 100 nM) | Percent cytotoxicity ([6]; 1 μM) | further results |
| --- | --- | --- | --- | --- | --- | --- | --- | --- | --- | --- | --- | --- | --- | --- | --- | --- | --- | --- | --- | --- | --- |
| CSCC[C@H](NC(=O)[C@H](CC(C)C)NC(=O)[C@H](CCCCN)NC(=O)[C@H](CCCCN)NC(=O)C1(NC(=O)[C@H](CC(C)C)NC(=O)[C@@H](Cc2c[nH]c3ccccc23)NC(=O)[C@H](Cc2ccccc2)NC(=O)[C@@H](Cc2c[nH]c3ccccc23)NC(=O)[C@H](CCC(N)=O)NC(=O)[C@@H](Cc2ccccc2)NC(=O)[C@@H]2CCCN2C(=O)[C@H](CCCCN)NC(=O)[C@@H]2CCCN2C(=O)[C@@H](CCCNC(=N)N)NC(=O)[C@H](CCCCN)NC(=O)[C@H](CCCCN)NC(=O)[C@@H](NC(=O)[C@H]2NC(=O)C3(CCCC3)NC(=O)[C@H](CCCN)NC(=O)[C@@H](Cc3c[nH]c4ccccc34)NC(=O)[C@H](Cc3ccc(O)cc3)NC(=O)[C@@H](NC(=O)[C@H](N)Cc3ccccc3)CSSC2(C)C)[C@@H](C)O)CCCC1)C(=O)N[C@@H](Cc1ccc(O)cc1)C(=O)N1CCC[C@H]1C(=O)N[C@H](C(=O)N[C@@H](Cc1ccc(O)cc1)C(=O)N[C@@H](CC(C)C)C(=O)N[C@@H](CCCCN)C(=O)N[C@@H](CCCCN)C(=O)N[C@H](Cc1ccccc1)C(=O)N[C@@H](CCC(N)=O)C(=O)N[C@@H](Cc1c[nH]c2ccccc12)C(=O)N[C@@H](C)C(=O)N[C@H](C(=O)NC(C)(C)C(=O)N[C@@H](Cc1c[nH]cn1)C(=O)N[C@@H](CC(C)C)C(N)=O)C(C)C)[C@@H](C)O [SEQ ID NO: 5, P4-Lys-Lys-P3-Lys-Lys-P1-Lys-P2] (H-[dF]CY[dW][Orn][Ac5c][Pen]TKK[dR]PKP[dF]Q[dW]F[dW]L[Ac5c]KKLMYPTYLKK[dF]QWAV[Aib]HL-NH2; disulfide 2-7) | 73.7% | 16.5 ± 1.6 | 14.2 ± 2.2 | 16.8 ± 1.0 | 21.7 ± 2.9 | 27.9 ± 2.8 | 10.6 ± 1.2 | 18.2 ± 1.9 | 30.7 ± 3.9 | 43.1 ± 5.3 | 98.3 ± 5.7 | 20.5 ± 3.2 | 21.5 ± 3.9 | 22.2 ± 2.8 | 28.2 ± 3.1 | 48.8 ± 3.6 | 24.2 ± 2.7 | 37.8 ± 4.6 | 48.2 ± 4.8 | 59.6 ± 4.9 | time in which the polypeptide disappeared completely on incubation with trypsin [3]: ~5 h; Percent cytotoxicity ([6]; 10 μM): 84.5 ± 6.3; Percent cytotoxicity ([7]; 1 nM): 29.7 ± 3.8; Percent cytotoxicity ([7]; 10 nM): 28.2 ± 4.3; Percent cytotoxicity ([7]; 100 nM): 35.3 ± 4.8; Percent cytotoxicity ([7]; 1 μM): 59.4 ± 4.8; Percent cytotoxicity ([7]; 10 μM): 85.4 ± 5.0; Percent cytotoxicity ([8]; 1 nM): 10.4 ± 0.7; Percent cytotoxicity ([8]; 10 nM): 18.7 ± 1.9; Percent cytotoxicity ([8]; 100 nM): 34.7 ± 4.7; Percent cytotoxicity ([8]; 1 μM): 54.3 ± 5.2; Percent cytotoxicity ([8]; 10 μM): 94.5 ± 6.1 |
| CSCC[C@H](NC(=O)[C@H](CC(C)C)NC(=O)[C@H](CCCCN)NC(=O)[C@H](CCCCN)NC(=O)[C@H](CC(C)C)NC(=O)[C@H](Cc1c[nH]cn1)NC(=O)C(C)(C)NC(=O)[C@@H](NC(=O)[C@H](C)NC(=O)[C@H](Cc1c[nH]c2ccccc12)NC(=O)[C@H](CCC(N)=O)NC(=O)[C@@H](Cc1ccccc1)NC(=O)[C@H](CCCCN)NC(=O)[C@H](CCCCN)NC(=O)C1(NC(=O)[C@H](CC(C)C)NC(=O)[C@@H](Cc2c[nH]c3ccccc23)NC(=O)[C@H](Cc2ccccc2)NC(=O)[C@@H](Cc2c[nH]c3ccccc23)NC(=O)[C@H](CCC(N)=O)NC(=O)[C@@H](Cc2ccccc2)NC(=O)[C@@H]2CCCN2C(=O)[C@H](CCCCN)NC(=O)[C@@H]2CCCN2C(=O)[C@H](N)CCCNC(=N)N)CCCC1)C(C)C)C(=O)N[C@@H](Cc1ccc(O)cc1)C(=O)N1CCC[C@H]1C(=O)N[C@H](C(=O)N[C@@H](Cc1ccc(O)cc1)C(=O)N[C@@H](CC(C)C)C(=O)N[C@@H](CCCCN)C(=O)N[C@@H](CCCCN)C(=O)N[C@H](Cc1ccccc1)C(=O)N[C@H]1CSSC(C)(C)[C@@H](C(=O)N[C@H](C(N)=O)[C@@H](C)O)NC(=O)C2(CCCC2)NC(=O)[C@H](CCCN)NC(=O)[C@@H](Cc2c[nH]c3ccccc23)NC(=O)[C@H](Cc2ccc(O)cc2)NC1=O)[C@@H](C)O [SEQ ID NO: 7, P3-Lys-Lys-P2-Lys-Lys-P1-Lys-P4] (H-[dR]PKP[dF]Q[dW]F[dW]L[Ac5c]KK[dF]QWAV[Aib]HLKKLMYPTYLKK[dF]CY[dW][Orn][Ac5c][Pen]T-NH2; disulfide 34-39) | 48.7% | 13.5 ± 1.8 | 18.7 ± 0.5 | 23.5 ± 3.5 | 28.5 ± 2.1 | 17.9 ± 1.9 | 13.9 ± 1.9 | 23.9 ± 1.8 | 34.8 ± 3.9 | 54.3 ± 5.8 | 82.8 ± 5.4 | 9.0 ± 0.6 | 10.4 ± 0.4 | 13.3 ± 0.1 | 14.9 ± 0.6 | 23.1 ± 0.9 | 24.9 ± 2.8 | 22.9 ± 1.4 | 23.8 ± 2.9 | 28.8 ± 1.9 | Percent cytotoxicity ([6]; 10 μM): 27.8 ± 2.8; Percent cytotoxicity ([7]; 1 nM): 18.9 ± 2.0; Percent cytotoxicity ([7]; 10 nM): 19.0 ± 0.5; Percent cytotoxicity ([7]; 100 nM): 22.9 ± 1.4; Percent cytotoxicity ([7]; 1 μM): 23.6 ± 2.9; Percent cytotoxicity ([7]; 10 μM): 31.4 ± 3.7; Percent cytotoxicity ([8]; 1 nM): 23.7 ± 1.6; Percent cytotoxicity ([8]; 10 nM): 34.9 ± 4.9; Percent cytotoxicity ([8]; 100 nM): 46.0 ± 4.9; Percent cytotoxicity ([8]; 1 μM): 54.3 ± 4.9; Percent cytotoxicity ([8]; 10 μM): 88.5 ± 6.8 |
